Experimental data taken from PMC4057235, “Development and Evaluation of Small Peptidomimetic Ligands to Protease-Activated Receptor-2 (PAR2) through the Use of Lipid Tethering” (PLoS ONE, 2014).
Where two headings read alike, the source gives them in different places. Square brackets hold non-standard residues; d marks the D form. Peptide text beside a SMILES is read from it. * marks the point of attachment. 4Thiazolecarbonyl(2-NH2) = Nc1nc(C(=O)*)cs1; Cha = N[C@@H](CC1CCCCC1)C(=O)O

What was measured:
MrgprC11 = target: T1, MrgprC11 (Mus musculus, UniProt Q8CIP3); experiment: Ca2+ response in MrgprC11 transfected CHO cells; type: cell-based
T1 construct: An MrgprC11 cDNA in pcDNA3.1 vector was transfected into CHO cells; expressed in transfected cells; host or cells: CHO cells, transient transfection with Lipofectamine 2000
T1 sequence (Q8CIP3 1-322): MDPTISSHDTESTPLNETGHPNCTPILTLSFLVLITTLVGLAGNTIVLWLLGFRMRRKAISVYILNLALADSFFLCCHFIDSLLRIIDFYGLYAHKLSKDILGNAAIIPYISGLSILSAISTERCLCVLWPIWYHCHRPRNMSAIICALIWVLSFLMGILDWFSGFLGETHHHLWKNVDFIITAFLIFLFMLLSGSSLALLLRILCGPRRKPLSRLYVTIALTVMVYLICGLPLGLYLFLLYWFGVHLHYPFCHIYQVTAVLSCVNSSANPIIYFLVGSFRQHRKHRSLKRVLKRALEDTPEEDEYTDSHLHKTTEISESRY
Description: CHO cells were cultured in DMEM supplemented with 10% FBS and 1% penicillin and streptomycin at 37°C in a 5% CO2 atmosphere. One day before transfection, CHO cells were plated in a 60 mm cell culture dish at a concentration of 1×10^5 cells/cm^2 and grown without antibiotics. An MrgprC11 cDNA in pcDNA3.1 vector was transfected into CHO cells using Lipofectamine™ 2000 (Invitrogen) prior to transfer to coverslips for experiments. Coverslips were coated with 0.1 mg/ml poly-D-lysine (from 2 mg/ml stock) and incubated for 1 hr at room temperature, after which the coating solution was removed and the coverslips were washed twice with double distilled water. CHO cells were seeded on coverslips at a concentration of 1×10^5 cells/cm^2 6 hr after transfection. Transfected cells were incubated for 24 hr prior to Ca^2+ imaging.
16HBE14o- cells or CHO cells were loaded with fura 2-acetomethoxyl ester (CalBiochem or Molecular Probes) for 30 min at room temperature. Cells were washed with HBSS and allowed to sit for at least 20 min prior to digital imaging. For activation and desensitization assay experiments using 16HBE14o- cells, [Ca^2+]i was measured as previously described. Experiments consisted of 20 sec of recording of cells in HBSS to determine resting [Ca^2+]i, followed by a 10 sec wash to introduce ligand and up to 10 min of recording for ligand washes required for desensitization experiments. Briefly, fura-2 fluorescence was observed on an Olympus IX70 microscope with a 40X oil immersion objective after alternating excitation between 340 and 380 nm by a 75 W Xenon lamp linked to a Delta Ram V illuminator (PTI) and a gel optic line. Intracellular Ca^2+ concentration ([Ca^2+]i) for each individual cell in the field of view was calculated by ratiometric analysis of fura-2 fluorescence using equations originally published in [31]. Individual ratios were calculated every sec throughout the experiments. [Ca^2+]i traces over time are averaged [Ca^2+]i of all cells within a field of view (80–120) and are representative of at least 3 experiments. Cells were considered activated by the ligand if their resting [Ca^2+]i was increased above a 200 nM threshold, a 2–4 fold increase above typical resting values. Percent activation graphs are determined from 3–6 experiments for each ligand concentration. Time to threshold in individual cells represent between 200–400 cells from at least 3 experiments at each ligand concentration. Ca^2+ imaging of CHO cells was similar; each ligand concentration tested included at least 3 experiments and a minimum of 200 cells analyzed during each experiment.

PAR2 = target: T2, PAR2 (Homo sapiens, UniProt P55085); experiment: xCELLigence RTCA in vitro physiological response, 16HBE14o- cells; type: cell-based; conditions: for EC50: peak Normalized Cell Index within 4 hr
T2 construct: 16HBE14o- cells on E-plates in growth medium; endogenous in cells; host or cells: 16HBE14o- cells
T2 sequence (P55085 26-397): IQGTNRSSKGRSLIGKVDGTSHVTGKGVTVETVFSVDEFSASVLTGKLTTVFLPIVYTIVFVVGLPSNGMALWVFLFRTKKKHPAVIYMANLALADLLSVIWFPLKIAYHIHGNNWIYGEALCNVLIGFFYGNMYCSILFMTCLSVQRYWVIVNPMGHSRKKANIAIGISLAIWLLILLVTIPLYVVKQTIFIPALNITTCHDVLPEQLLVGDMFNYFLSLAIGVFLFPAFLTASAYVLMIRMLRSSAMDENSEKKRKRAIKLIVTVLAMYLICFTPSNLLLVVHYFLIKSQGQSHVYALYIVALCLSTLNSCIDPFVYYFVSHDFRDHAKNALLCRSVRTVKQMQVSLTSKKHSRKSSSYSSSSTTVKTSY
Text: 16HBE14o- cells, a SV40 transformed human bronchial epithelial cell line, were obtained through the California Pacific Medical Center Research Institute (San Francisco, CA, USA). Cells were maintained and expanded as previously described. Briefly, cell lines were expanded in tissue culture flasks prior to transfer to 96 well E-plates (Roche) for experiments. Flasks and 96 well E-plates were coated initially with a matrix coating solution (88% Lechner and LaVeck basal medium, 10% bovine serum albumin (BSA; from 1 mg/ml stock), 1% bovine collagen type I (from 2.9 mg/ml stock), and 1% human fibronectin (from 1 mg/ml stock solution) and incubated for 2 hr at 37°C, after which the coating solution was removed and allowed to dry for at least 1 hr. 16HBE14o- cells were plated at a concentration of 1×10^5 cells/cm^2 and grown in Eagle’s Minimal Essential Medium supplemented with 10% Fetal Bovine Serum (FBS), 2 mM glutamax, penicillin and streptomycin (growth medium) at 37°C in a 5% CO2 atmosphere. Growth medium was replaced every other day until the cells reached confluence (5–7 days). Cells were then transferred to 96 well E-plates for RTCA, or collagen/fibronectin/BSA coated glass coverslips for Ca^2+ imaging experiments.
16HBE14o- cells on E-plates in growth medium and in a 37°C, 5% CO2 incubator were monitored for the establishment for relative impedance overnight every 15 min using the xCELLigence™ Real Time Cell Analyzer (RTCA, Roche), [28], [30]. When cells reached baseline impedance the next day, and prior to the experiment, the RTCA was moved to room air and temperature where full growth medium was replaced with 100μL modified Hank’s Balanced Saline Solution (HBSS) pre-warmed to 37°C. The RTCA was then allowed to come to room temperature (45–60 min) prior to ligand addition. Each well was then supplemented with 100 µL HBSS containing appropriate ligands to measure concentration response ranges in quadruplicate. Additional wells were used for vehicle controls. Relative impedance in each well was monitored every 30 sec over 4 hr. Peak responses, defined as the maximal change in Normalized Cell Index, were used to define maximal response concentrations and physiological EC50s for each ligand.

mice = experiment: In vivo mechanical sensitivity (von Frey) after hindpaw injection; parameters: species or system mouse; conditions: 15 pmoles into plantar hindpaw, 1 and 3 hr post-injection
Description: Male ICR mice (Harlan) or PAR2 ^-/- mice and their wild type littermates on a C57Bl/6 background weighing 25–30 grams were used for these studies. Animal protocols were approved by the Institutional Animal Care and Use Committee of The University of Arizona. Compounds were injected into the plantar surface of the hindpaw in a total volume of 25 µL using a 31-gauge needle. Compounds were diluted using sterile saline. Mechanical thresholds were determined using calibrated von Frey filaments (Stoelting Co, Wood Dale, IN) with the up-down method. The experimenter was always blinded to the treatment conditions and animals were randomized such that animals in a single experimental group were never all housed together.

In the case of `CCCCCCCCCCCCCCCCNC(=O)COCC(=O)NCCCOCCOCCOCCCNC(=O)COCC(=O)NCCCOCCOCCOCCCNC(=O)COCC(=O)NCCCOCCOCCOCCCNC(=O)[C@H](CC(C)C)NC(=O)[C@H](CCCNC(=N)N)NC(=O)CNC(=O)[C@@H](NC(=O)[C@H](CC(C)C)NC(=O)c1csc(N)n1)[C@@H](C)CC` [Compound 1, 2at-LIGRL-PEG3-Hdc], the “Ca2+ response (% of cells)” value (MrgprC11; 1 nM) is reported as 0%, the “Ca2+ response (% of cells)” value (MrgprC11; 10 nM) is reported as 2.5% and the “Ca2+ response (% of cells)” value (MrgprC11; 100 nM) is reported as 10%. For the same molecule, the “Ca2+ response (% of cells)” value (MrgprC11; 1 µM) was 20%, the “Ca2+ response (% of cells)” value (MrgprC11; 10 µM) was 88 ± 19% and the EC50 (PAR2) was 1.7 nM.

With `CCCCCCCCCCCCCCCCNC(=O)COCC(=O)NCCCOCCOCCOCCCNC(=O)COCC(=O)NCCCOCCOCCOCCCNC(=O)COCC(=O)NCCCOCCOCCOCCCNC(=O)[C@H](CCCNC(=N)N)NC(=O)CNC(=O)[C@@H](NC(=O)[C@H](CC(C)C)NC(=O)c1csc(N)n1)[C@@H](C)CC` [Compound 2, 2at-LIGR-PEG3-Hdc] the “Ca2+ response (% of cells)” value (MrgprC11; 100 nM) was 0.5% and the EC50 (PAR2) was 2.1 nM.

`CCCCCCCCCCCCCCCCNC(=O)COCC(=O)NCCCOCCOCCOCCCNC(=O)COCC(=O)NCCCOCCOCCOCCCNC(=O)COCC(=O)NCCCOCCOCCOCCCNC(=O)CNC(=O)[C@@H](NC(=O)[C@H](CC(C)C)NC(=O)c1csc(N)n1)[C@@H](C)CC` [Compound 3, 2at-LIG-PEG3-Hdc] gave an EC50 (PAR2) of 46 nM.

`CCCCCCCCCCCCCCCCNC(=O)COCC(=O)NCCCOCCOCCOCCCNC(=O)COCC(=O)NCCCOCCOCCOCCCNC(=O)COCC(=O)NCCCOCCOCCOCCCNC(=O)[C@@H](NC(=O)[C@H](CC(C)C)NC(=O)c1csc(N)n1)[C@@H](C)CC` [Compound 4, 2at-LI-PEG3-Hdc] showed an EC50 (PAR2) of 310 nM.

`CCCCCCCCCCCCCCCCNC(=O)COCC(=O)NCCCOCCOCCOCCCNC(=O)COCC(=O)NCCCOCCOCCOCCCNC(=O)COCC(=O)NCCCOCCOCCOCCCNC(=O)C(CC(C)C)NC(=O)c1csc(N)n1` [Compound 5, 2at-L-PEG3-Hdc] was tested, and the “mechanical hypersensitivity (von Frey)” value (mice) was “inactive”, the “mechanical hypersensitivity (von Frey)” value (mice; listed as 2at-L-PEG 3-Hdc) was “lacked efficacy” and the “RTCA response / agonism (peak Normalized Cell Index)” value (PAR2) was “eliminated ligand activity”. The “RTCA response / agonism (peak Normalized Cell Index)” value (PAR2; listed as 2at-L-PEG 3-Hdc) was “eliminated in vitro activity”.

`CCCCCCCCCCCCCCCCNC(=O)COCC(=O)NCCCOCCOCCOCCCNC(=O)COCC(=O)NCCCOCCOCCOCCCNC(=O)COCC(=O)NCCCOCCOCCOCCCNC(=O)c1csc(N)n1` [Compound 6, 2at-PEG3-Hdc] was tested, and the “RTCA response / agonism (peak Normalized Cell Index)” value (PAR2) was “eliminated ligand activity” and the “RTCA response / agonism (peak Normalized Cell Index)” value (PAR2; listed as 2at-PEG 3-Hdc) was “eliminated in vitro activity”.

Work on `CC[C@H](C)[C@H](NC(=O)[C@H](CC1CCCCC1)NC(=O)c1csc(N)n1)C(=O)NCC(=O)N[C@@H](CCCNC(=N)N)C(N)=O` [Compound 7, 2at-Cha-IGR-NH2] ({4Thiazolecarbonyl(2-NH2)}-[Cha]IGR-NH2) yielded an EC50 (PAR2) of 490 nM.

With `CC[C@H](C)[C@H](NC(=O)[C@H](CC1CCCCC1)NC(=O)c1csc(N)n1)C(N)=O` [Compound 9, 2at-Cha-I-NH2] the EC50 (PAR2) was 1100 nM.

In the case of `CCCCCCCCCCCCCCCCNC(=O)COCC(=O)NCCCOCCOCCOCCCNC(=O)COCC(=O)NCCCOCCOCCOCCCNC(=O)[C@H](CCCNC(=N)N)NC(=O)CNC(=O)[C@@H](NC(=O)[C@H](CC1CCCCC1)NC(=O)c1csc(N)n1)[C@@H](C)CC` [Compound 11, 2at-Cha-IGR-PEG2-Hdc], the EC50 (PAR2) is reported as 16 nM.

`CCCCCCCCCCCCCCCCNC(=O)COCC(=O)NCCCOCCOCCOCCCNC(=O)COCC(=O)NCCCOCCOCCOCCCNC(=O)[C@H](CCCNC(=N)N)NC(=O)CNC(=O)[C@@H](NC(=O)[C@H](CC1CCCCC1)NC(=O)c1ccno1)[C@@H](C)CC` [Compound 12, 5io-Cha-IGR-PEG2-Hdc] gave an EC50 (PAR2) of 6.8 nM.

`CCCCCCCCCCCCCCCCNC(=O)COCC(=O)NCCCOCCOCCOCCCNC(=O)COCC(=O)NCCCOCCOCCOCCCNC(=O)[C@@H](NC(=O)[C@H](CC1CCCCC1)NC(=O)c1csc(N)n1)[C@@H](C)CC` [Compound 13, 2at-Cha-I-PEG2-Hdc] gave an EC50 (PAR2) of 86 nM.

For `CCCCCCCCCCCCCCCCNC(=O)COCC(=O)NCCCOCCOCCOCCCNC(=O)COCC(=O)NCCCOCCOCCOCCCNC(=O)[C@@H](NC(=O)[C@H](CC1CCCCC1)NC(=O)c1ccno1)[C@@H](C)CC` [Compound 14, 5io-Cha-I-PEG2-Hdc], the EC50 (PAR2) was 43 nM.
